Type in all cases: functional, cell-based
In data set [1] the target is ATP-dependent translocase ABCB1 (Mus musculus, UniProt P06795). Briefly: TP_TRANSPORTER: uptake, not inhibited by Verapamil in MBEC4 cell.
Data set [2] deals with ATP-dependent translocase ABCB1 (Homo sapiens, UniProt P08183). The data set can be described thus: TP_TRANSPORTER: uptake in LLC-PK1 cell and LLC-GA5-COL300 cells. The following applies: pig.
Data set [3] concerns the target ATP-dependent translocase ABCB1 (Mus musculus, UniProt P21447). The data set can be described thus: TP_TRANSPORTER: uptake in L cell and LV500 cell.

Sequence of ATP-dependent translocase ABCB1 (Homo sapiens, UniProt P08183) (P08183 whole entry): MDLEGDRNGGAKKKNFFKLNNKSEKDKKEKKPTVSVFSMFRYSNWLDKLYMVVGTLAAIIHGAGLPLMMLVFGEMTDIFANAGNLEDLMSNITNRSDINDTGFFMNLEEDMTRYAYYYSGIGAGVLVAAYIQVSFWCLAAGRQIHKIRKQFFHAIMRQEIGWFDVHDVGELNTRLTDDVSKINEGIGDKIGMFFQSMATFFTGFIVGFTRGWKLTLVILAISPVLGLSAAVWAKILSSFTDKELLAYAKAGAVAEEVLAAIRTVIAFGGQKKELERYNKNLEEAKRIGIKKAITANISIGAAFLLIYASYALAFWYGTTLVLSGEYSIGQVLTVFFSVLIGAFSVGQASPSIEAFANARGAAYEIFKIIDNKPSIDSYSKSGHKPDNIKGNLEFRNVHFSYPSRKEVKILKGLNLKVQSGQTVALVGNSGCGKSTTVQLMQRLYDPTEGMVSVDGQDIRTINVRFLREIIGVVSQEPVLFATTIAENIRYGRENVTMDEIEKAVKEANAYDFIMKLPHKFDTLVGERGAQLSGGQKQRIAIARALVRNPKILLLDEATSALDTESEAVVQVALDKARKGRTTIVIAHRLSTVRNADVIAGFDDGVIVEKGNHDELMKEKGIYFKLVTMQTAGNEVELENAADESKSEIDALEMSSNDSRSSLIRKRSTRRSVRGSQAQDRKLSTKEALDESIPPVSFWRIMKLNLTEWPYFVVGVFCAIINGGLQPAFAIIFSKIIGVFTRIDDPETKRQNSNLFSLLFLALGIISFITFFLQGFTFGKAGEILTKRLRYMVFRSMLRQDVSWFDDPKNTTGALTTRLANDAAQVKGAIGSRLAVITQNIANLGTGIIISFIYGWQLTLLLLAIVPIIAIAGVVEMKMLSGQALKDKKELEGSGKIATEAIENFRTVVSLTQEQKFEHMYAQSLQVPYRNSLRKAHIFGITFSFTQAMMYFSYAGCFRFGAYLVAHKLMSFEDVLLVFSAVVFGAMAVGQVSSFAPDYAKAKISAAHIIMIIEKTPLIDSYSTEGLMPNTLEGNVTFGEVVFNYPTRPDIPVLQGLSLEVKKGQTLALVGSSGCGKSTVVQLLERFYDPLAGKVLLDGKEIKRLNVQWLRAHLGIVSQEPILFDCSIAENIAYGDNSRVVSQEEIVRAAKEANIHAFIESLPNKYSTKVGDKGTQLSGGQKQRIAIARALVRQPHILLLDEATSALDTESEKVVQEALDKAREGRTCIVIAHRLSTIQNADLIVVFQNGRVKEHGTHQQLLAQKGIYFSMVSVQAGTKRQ
Sequence of ATP-dependent translocase ABCB1 (Mus musculus, UniProt P21447) (P21447 whole entry): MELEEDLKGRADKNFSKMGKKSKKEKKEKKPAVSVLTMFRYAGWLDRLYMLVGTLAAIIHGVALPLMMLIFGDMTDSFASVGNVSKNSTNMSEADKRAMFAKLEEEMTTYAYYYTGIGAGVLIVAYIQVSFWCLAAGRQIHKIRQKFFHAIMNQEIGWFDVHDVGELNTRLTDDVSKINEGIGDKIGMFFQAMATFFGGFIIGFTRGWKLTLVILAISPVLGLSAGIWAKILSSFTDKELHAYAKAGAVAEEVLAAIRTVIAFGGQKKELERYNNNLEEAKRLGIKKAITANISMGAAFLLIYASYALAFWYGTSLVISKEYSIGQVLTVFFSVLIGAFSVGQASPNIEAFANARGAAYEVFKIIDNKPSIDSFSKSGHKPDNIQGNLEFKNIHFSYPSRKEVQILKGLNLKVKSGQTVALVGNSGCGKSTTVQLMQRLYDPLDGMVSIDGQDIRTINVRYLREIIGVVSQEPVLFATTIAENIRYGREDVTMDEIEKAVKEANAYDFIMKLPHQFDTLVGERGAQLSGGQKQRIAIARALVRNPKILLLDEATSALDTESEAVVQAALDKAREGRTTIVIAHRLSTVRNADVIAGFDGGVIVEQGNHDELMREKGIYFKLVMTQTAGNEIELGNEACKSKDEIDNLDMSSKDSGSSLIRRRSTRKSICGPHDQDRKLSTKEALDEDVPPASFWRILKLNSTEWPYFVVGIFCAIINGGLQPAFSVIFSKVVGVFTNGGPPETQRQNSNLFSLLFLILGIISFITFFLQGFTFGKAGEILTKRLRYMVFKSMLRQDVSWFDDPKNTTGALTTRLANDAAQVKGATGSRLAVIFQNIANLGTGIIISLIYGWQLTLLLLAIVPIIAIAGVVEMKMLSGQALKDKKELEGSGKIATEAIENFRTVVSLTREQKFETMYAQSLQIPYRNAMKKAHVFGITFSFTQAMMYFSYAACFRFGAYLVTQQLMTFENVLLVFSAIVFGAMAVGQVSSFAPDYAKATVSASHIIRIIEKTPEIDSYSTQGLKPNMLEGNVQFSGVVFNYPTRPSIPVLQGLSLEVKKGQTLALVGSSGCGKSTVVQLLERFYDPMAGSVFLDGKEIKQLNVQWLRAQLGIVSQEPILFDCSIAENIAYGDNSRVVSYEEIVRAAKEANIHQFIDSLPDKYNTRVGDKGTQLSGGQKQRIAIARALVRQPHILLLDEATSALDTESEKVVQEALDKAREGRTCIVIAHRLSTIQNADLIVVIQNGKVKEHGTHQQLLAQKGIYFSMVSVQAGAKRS
Sequence of ATP-dependent translocase ABCB1 (Mus musculus, UniProt P06795) (P06795 whole entry): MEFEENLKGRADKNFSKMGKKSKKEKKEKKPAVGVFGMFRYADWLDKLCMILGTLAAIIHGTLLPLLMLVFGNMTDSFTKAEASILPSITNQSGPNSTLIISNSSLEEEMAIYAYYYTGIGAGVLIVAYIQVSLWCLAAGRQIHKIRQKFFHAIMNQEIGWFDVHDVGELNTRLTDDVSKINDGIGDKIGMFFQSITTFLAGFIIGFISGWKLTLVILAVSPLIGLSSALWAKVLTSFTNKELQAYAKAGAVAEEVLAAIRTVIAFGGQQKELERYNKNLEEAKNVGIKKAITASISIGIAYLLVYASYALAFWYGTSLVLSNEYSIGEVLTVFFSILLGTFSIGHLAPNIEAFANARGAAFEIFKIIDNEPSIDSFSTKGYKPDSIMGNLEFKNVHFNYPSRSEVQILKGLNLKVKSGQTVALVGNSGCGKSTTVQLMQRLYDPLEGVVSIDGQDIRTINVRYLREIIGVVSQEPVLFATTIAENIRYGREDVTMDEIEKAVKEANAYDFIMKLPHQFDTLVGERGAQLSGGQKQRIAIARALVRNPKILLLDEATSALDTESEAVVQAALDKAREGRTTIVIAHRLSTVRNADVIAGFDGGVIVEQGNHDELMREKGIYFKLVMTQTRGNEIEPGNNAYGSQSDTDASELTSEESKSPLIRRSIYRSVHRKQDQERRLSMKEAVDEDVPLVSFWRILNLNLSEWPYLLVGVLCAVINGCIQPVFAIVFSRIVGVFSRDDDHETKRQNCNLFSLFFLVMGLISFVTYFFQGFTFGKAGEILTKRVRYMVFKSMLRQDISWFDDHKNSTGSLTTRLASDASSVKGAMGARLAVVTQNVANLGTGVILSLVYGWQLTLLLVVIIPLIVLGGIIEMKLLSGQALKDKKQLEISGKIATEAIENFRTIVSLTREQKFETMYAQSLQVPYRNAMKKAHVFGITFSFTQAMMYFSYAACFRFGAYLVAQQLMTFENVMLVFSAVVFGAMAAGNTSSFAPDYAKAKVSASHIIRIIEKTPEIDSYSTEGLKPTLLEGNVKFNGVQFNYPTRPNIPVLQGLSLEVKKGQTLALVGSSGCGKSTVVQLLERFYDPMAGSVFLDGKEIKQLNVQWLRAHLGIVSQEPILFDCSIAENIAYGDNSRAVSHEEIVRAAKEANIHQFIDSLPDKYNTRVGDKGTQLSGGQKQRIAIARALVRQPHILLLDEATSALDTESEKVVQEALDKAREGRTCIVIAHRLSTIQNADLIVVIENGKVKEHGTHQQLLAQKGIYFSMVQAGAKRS

As to `Cn1cc(C(=O)[C@@H]2CCc3nc[nH]c3C2)c2ccccc21` [RAMOSETRON], the Activity entry in data set [1] was “is not a substrate [-]”; in data set [2] it was “substrate [+]”; in data set [3] it was “substrate [+]”.

The record behind these values is ChEMBL document CHEMBL2074446, “Contribution of P-glycoprotein to efflux of ramosetron, a 5-HT3 receptor antagonist, across the blood-brain barrier” (J Pharm Pharmacol, 2002).
